According to ChEMBL document CHEMBL4699448, “Garcinoic Acids and a Benzophenone Derivative from the Seeds of Garcinia kola and Their Antibacterial Activities against Oral Bacterial Pathogenic Organisms” (2020):
In brackets after ≈: the same amount, converted by molar mass.

Tests used:
Assay type in all cases: functional
Streptococcus sobrinus [1] = assay: Antibacterial activity against Streptococcus sobrinus 6715 assessed as reduction in bacterial growth incubated for 24 hrs by INT dye based broth dilution method
Porphyromonas gingivalis [2] = assay: Bactericidal activity against Porphyromonas gingivalis ATCC 33277 assessed as reduction in bacterial growth incubated for 48 hrs by INT dye based broth dilution method
Porphyromonas gingivalis [3] = assay: Antibacterial activity against Porphyromonas gingivalis ATCC 33277 assessed as reduction in bacterial growth incubated for 24 hrs by INT dye based broth dilution method
Streptococcus sobrinus [4] = assay: Bactericidal activity against Streptococcus sobrinus 6715 assessed as reduction in bacterial growth incubated for 48 hrs by INT dye based broth dilution method

SMILES: C/C(=C\CC/C(C)=C/CC[C@]1(C)CCc2cc(O)cc(C)c2O1)CC/C=C(\C)C(=O)O
- MIC (Streptococcus sobrinus [1]): 31.3 µM (≈ 13.4 µg/mL)
- MBC (Porphyromonas gingivalis [2]): 250 µM (≈ 107 µg/mL)
- MIC (Porphyromonas gingivalis [3]): 31.3 µM (≈ 13.4 µg/mL)
- MBC (Streptococcus sobrinus [4]): 62.5 µM (≈ 26.7 µg/mL)

SMILES: O=C1C[C@@H](c2ccc(O)cc2)Oc2c1c(O)cc(O)c2[C@H]1C(=O)c2c(O)cc(O)cc2O[C@@H]1c1ccc(O)cc1
- MIC (Streptococcus sobrinus [1]): 250 µM (≈ 136 µg/mL)
- MBC (Porphyromonas gingivalis [2]): > 1000 µM
- MIC (Porphyromonas gingivalis [3]): 250 µM (≈ 136 µg/mL)
- MBC (Streptococcus sobrinus [4]): 500 µM (≈ 271 µg/mL)

SMILES: C/C(=C\CC/C(C)=C/CC[C@]1(C)CCc2cc(Oc3c(O)cc(C)c4c3CC[C@@](C)(CC/C=C(\C)CC/C=C(\C)CC/C=C(\C)C(=O)O)O4)cc(C)c2O1)CC/C=C(\C)C(=O)O
- MIC (Streptococcus sobrinus [1]): > 1000 µM
- MBC (Porphyromonas gingivalis [2]): > 1000 µM
- MIC (Porphyromonas gingivalis [3]): > 1000 µM
- MBC (Streptococcus sobrinus [4]): > 1000 µM

SMILES: COc1ccc([C@@H]2CC(=O)c3c(O)cc(O)c([C@H]4C(=O)c5c(O)cc(O)cc5O[C@@H]4c4ccc(O)cc4)c3O2)cc1O
- MIC (Streptococcus sobrinus [1]): 500 µM (≈ 286 µg/mL)
- MBC (Porphyromonas gingivalis [2]): > 1000 µM
- MIC (Porphyromonas gingivalis [3]): 125 µM (≈ 71.6 µg/mL)
- MBC (Streptococcus sobrinus [4]): > 1000 µM

SMILES: CC(C)=CCC/C(C)=C/Cc1c(O)cc(C(=O)c2ccccc2)cc1O
- MIC (Streptococcus sobrinus [1]): 15.6 µM (≈ 5.47 µg/mL)
- MBC (Porphyromonas gingivalis [2]): > 1000 µM
- MIC (Porphyromonas gingivalis [3]): 62.5 µM (≈ 21.9 µg/mL)
- MBC (Streptococcus sobrinus [4]): 31.3 µM (≈ 11 µg/mL)

SMILES: C/C(=C\CC/C(C)=C/CC[C@]1(C)CCc2c(c(C)cc(O)c2-c2c(O)cc(C)c3c2CC[C@@](C)(CC/C=C(\C)CC/C=C(\C)CC/C=C(\C)C(=O)O)O3)O1)CC/C=C(\C)C(=O)O
- MIC (Streptococcus sobrinus [1]): > 1000 µM
- MBC (Porphyromonas gingivalis [2]): > 1000 µM
- MIC (Porphyromonas gingivalis [3]): > 1000 µM
- MBC (Streptococcus sobrinus [4]): > 1000 µM

SMILES: C/C(=C\CC/C(C)=C/CC[C@]1(C)CCc2cc(Oc3c(O)c(C)c(C)c4c3CC[C@@](C)(CC/C=C(\C)CC/C=C(\C)CC/C=C(\C)C(=O)O)O4)cc(C)c2O1)CC/C=C(\C)C(=O)O
- MIC (Streptococcus sobrinus [1]): > 1000 µM
- MBC (Porphyromonas gingivalis [2]): > 1000 µM
- MIC (Porphyromonas gingivalis [3]): > 1000 µM
- MBC (Streptococcus sobrinus [4]): > 1000 µM

SMILES: COc1ccc([C@H]2Oc3c(c(O)cc(O)c3[C@H]3C(=O)c4c(O)cc(O)cc4O[C@@H]3c3ccc(O)cc3)C(=O)[C@@H]2O)cc1O
- MIC (Streptococcus sobrinus [1]): 250 µM (≈ 147 µg/mL)
- MBC (Porphyromonas gingivalis [2]): > 1000 µM
- MIC (Porphyromonas gingivalis [3]): > 1000 µM
- MBC (Streptococcus sobrinus [4]): > 1000 µM

SMILES: O=C1c2c(O)cc(O)cc2O[C@H](c2ccc(O)cc2)[C@H]1c1c(O)cc(O)c2c1O[C@H](c1ccc(O)cc1)[C@@H](O)C2=O
- MIC (Streptococcus sobrinus [1]): 250 µM (≈ 140 µg/mL)
- MBC (Porphyromonas gingivalis [2]): > 1000 µM
- MIC (Porphyromonas gingivalis [3]): > 1000 µM
- MBC (Streptococcus sobrinus [4]): 1000 µM (≈ 558 µg/mL)

SMILES: O=C1c2c(O)cc(O)cc2O[C@H](c2ccc(O)cc2)[C@H]1c1c(O)cc(O)c2c1O[C@H](c1ccc(O)c(O)c1)[C@@H](O)C2=O
- MIC (Streptococcus sobrinus [1]): 250 µM (≈ 144 µg/mL)
- MBC (Porphyromonas gingivalis [2]): > 1000 µM
- MIC (Porphyromonas gingivalis [3]): > 1000 µM
- MBC (Streptococcus sobrinus [4]): 1000 µM (≈ 574 µg/mL)

SMILES: N=C(NCCCCCCNC(=N)NC(=N)Nc1ccc(Cl)cc1)NC(=N)Nc1ccc(Cl)cc1 [CHLORHEXIDINE]
- MIC (Streptococcus sobrinus [1]): 2 µM (≈ 1.01 µg/mL)
- MBC (Porphyromonas gingivalis [2]): 31.3 µM (≈ 15.8 µg/mL)
- MIC (Porphyromonas gingivalis [3]): 15.6 µM (≈ 7.89 µg/mL)
- MBC (Streptococcus sobrinus [4]): 2 µM (≈ 1.01 µg/mL)

SMILES: CC1(C)CC[C@]2(C)CC[C@]3(C)[C@H]4CC=C5[C@@H](CC[C@H](O)C5(C)C)[C@]4(C)CC[C@@]3(C)[C@@H]2C1 [GLUTINOL]
- MIC (Streptococcus sobrinus [1]): > 1000 µM
- MBC (Porphyromonas gingivalis [2]): > 1000 µM
- MIC (Porphyromonas gingivalis [3]): > 1000 µM
- MBC (Streptococcus sobrinus [4]): > 1000 µM
